Test results from US20080234233A1, “MEDICAMENT FOR TREATMENT OF NEURODEGENERATIVE DISEASES” (INSTITUTE OF MEDICINAL MOLECULAR DESIGN INC., priority 2002, published 2008).

Assays:
NF-κ B activation = test: Inhibitory activity of NF-κB activation, luciferase reporter assay under TNF-α stimulation in HepG2; assay type: cell-based, human; details: HepG2, TNF-α 40 ng/ml, 4 hours; for inhibition at 1 µg/mL / inhibition at 10 µg/mL: Homo sapiens, read-out: Inhibitory rate against NF-κB activation (%)
How it was run: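 HepG2 cells transiently transfected with luciferase reporter carrying five tandem NF-κB binding sites, then stimulated with TNF-α (40 ng/ml) ± compound for 4 hours. Luminescent luciferase activity measured; inhibition expressed relative to activity without compound.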

AP-1 activation [1] = test: Inhibition against AP-1 activation by TNF α stimulation, luciferase reporter assay in HeLa; assay type: cell-based, human; details: TNF-α 40 ng/ml, 4 hours
Method: Measurement of Inhibition Against AP-1 Activation by TNF α Stimulation
Using a transfection reagent(Effectene; QIAGEN), the human uterine cancer cell strain HeLa was transfected with a plasmid(pAP-1-Luc Reporter Plasmid: […]) integrated with an oligonucleotide having seven tandem copies of AP-1 binding sequences(TGACTAA) on an upstream region of firefly luciferase gene(Luc) according to the QIAGEN's protocol, and the cells were incubated for 6 to 24 hours. After addition of TNF-α (40 ng/ml) in the presence or absence of a test compound, the cells were incubated for 4 hours, and intracellular luciferase activity was measured by using PicaGene LT(TOYO INK MFG Co., Ltd.) and a chemical luminescence measurement apparatus([…]luor Plus; TECAN). The inhibitory ratio was measured as a ratio relative to the value of the luciferase activity in the absence of the test compound.

AP-1 activation [2] = test: Inhibition against AP-1 activation by forced expression of MEKK-1, luciferase reporter assay in HepG2; assay type: cell-based, human; details: HepG2, MEKK-1 forced expression, 24 hours
Method: Measurement of Inhibition Against AP-1 Activation by Forced Expression of MEKK-1
Using a transfection reagent (Effectene; QIAGEN), the human hepatoma cell strain HepG2 was cotransfected with a plasmid (pAP-1-Luc Reporter Plasmid: […]) integrated with an oligonucleotide having seven tandem copies of AP-1 binding sequences (TGACTAA) on an upstream region of firefly luciferase gene (Luc) and the MEKK-1 expression plasmid (pFCMEKK: […]) according to the QIAGEN's protocol, and the cells were incubated for 20 to 24 hours. Then the cells were incubated in the presence or absence of a test compound for 24 hours, and then intracellular luciferase activity was measured by using PicaGene LT (TOYO INK MFG Co., Ltd.) and a chemical luminescence measurement apparatus ([…]luor Plus; TECAN). The inhibitory ratio was measured as a ratio relative to the value of the luciferase activity in the absence of the test compound.

[3] = Homo sapiens, Drug concentration at 10 μg/mL, read-out: Inhibitory rate against AP-1 activation(%)

| Structure (SMILES) | inhibition at 1 µg/mL (NF-κ B activation; Drug concentration at 1 μg/mL) | inhibition at 10 µg/mL (NF-κ B activation; Drug concentration at 10 μg/mL) | Inhibitory rate against NF-κB activation (%) (NF-κ B activation; Drug concentration at 1 μg/mL) | Inhibitory rate against NF-κB activation (%) (NF-κ B activation; Drug concentration at 10 μg/mL) | Inhibitory rate against AP-1 activation(%) (AP-1 activation [1]; Drug concentration at 10 μg/mL) | also measured |
| --- | --- | --- | --- | --- | --- | --- |
| O=C(Nc1cc(C(F)(F)F)cc(C(F)(F)F)c1)c1cc(I)ccc1O [compound 7, N-[3,5-bis(trifluoromethyl)phenyl]-2-hydroxy-5-iodobenzamide] | 86.6% | 85.4% |  |  |  | inhibition at 1 µg/mL (AP-1 activation [1]; Homo sapiens, Drug concentration at 1 μg/mL, read-out: Inhibitory rate against AP-1 activation(%)): 25.4%; inhibition at 10 µg/mL (AP-1 activation [1]; [3]): 82.4% |
| O=C(Nc1cc(C(F)(F)F)cc(C(F)(F)F)c1)c1cc(/C=C/c2ccccc2)ccc1O [compound 19] |  |  | 95.5% | 96.9% | 33.9% |  |
| O=C(Nc1cc(C(F)(F)F)cc(C(F)(F)F)c1)c1cc(C#Cc2ccccc2)ccc1O [compound 22, N-[3,5-bis(trifluoromethyl)phenyl]-2-hydroxy-5-(phenylethynyl)-benzamide] | 83.9% | 97.1% |  |  |  | inhibition at 10 µg/mL (AP-1 activation [1]; [3]): 44.1% |
| O=C(Nc1cc(C(F)(F)F)cc(C(F)(F)F)c1)c1cc(-c2ccccc2)ccc1O [compound 23] |  |  | 91.8% | 96.8% | 60.9% | Inhibitory rate against AP-1 activation(%) (AP-1 activation [1]; Drug concentration at 1 μg/mL): 18.1% |
| O=C(Nc1cc(C(F)(F)F)cc(C(F)(F)F)c1)c1cc(-c2ccsc2)ccc1O [compound 29] |  |  | 81.7% | 92.9% | 51.5% |  |
| O=C(Nc1cc(C(F)(F)F)cc(C(F)(F)F)c1)c1cc(C(=O)N2CCC(Cc3ccccc3)CC2)ccc1O [compound 40, N-[3,5-Bis(trifluoromethyl)phenyl]-2-hydroxy-5-(4-benzylpiperidine-1-carbonyl)-benzamide] | 44.9% | 96% |  |  |  | melting point: 179 to 180 °C |
| CC(=O)Nc1cc(O)c(C(=O)Nc2cc(C(F)(F)F)cc(C(F)(F)F)c2)cc1Cl [compound 50, 4-Acetylamino-N-[3,5-bis(trifluoromethyl)phenyl]-5-chloro-2-hydoxybenzamide] |  |  | 69.9% | 96.0% |  | Inhibitory ratio of AP-1 activation(%) (AP-1 activation [2]; Drug concentration 1 μM): 90.7%; Inhibitory ratio of AP-1 activation(%) (AP-1 activation [2]; Drug concentration 1 μg/mL): 99.4% |
| O=C(Nc1cc(C(F)(F)F)cc(C(F)(F)F)c1)c1cc(Cl)cnc1O [compound 75] |  |  | 58.1% | 82.2% | 56.7% | Inhibitory rate against AP-1 activation(%) (AP-1 activation [1]; Drug concentration at 1 μg/mL): 33.3% |
| CC(=O)Oc1ccccc1C(=O)Nc1cc(Cl)cc(Cl)c1 [compound 120, 2-acetoxy-N-(3,5-dichlorophenyl)benzamide] | 88.6% | 97.5% |  |  |  | melting point: 218 to 219 °C |
| O=C(Nc1cc(Cl)cc(Cl)c1)c1cc(F)ccc1O [compound 124] |  |  | 94.2% | 97.0% | 67.7% |  |
| O=C(Nc1cc(Cl)cc(Cl)c1)c1cc(Cl)ccc1O [compound 125] |  |  | 84.5% | 96.8% | 74.8% | Inhibitory rate against AP-1 activation(%) (AP-1 activation [1]; Drug concentration at 1 μg/mL): 22.7% |
| O=C(Nc1cc(Cl)cc(Cl)c1)c1cc(Br)ccc1O [compound 126] |  |  | 77.1% | 92.8% | 83.8% | Inhibitory rate against AP-1 activation(%) (AP-1 activation [1]; Drug concentration at 1 μg/mL): 39.3% |
| O=C(Nc1cc(Cl)cc(Cl)c1)c1cc(I)ccc1O [compound 127] |  |  | 85.4% | 97.1% | 75.4% |  |
| O=C(Nc1nc(C(F)(F)F)c(Br)s1)c1cc(Br)ccc1O [compound 187] |  |  | 85.3% | 94.4% | 49.9% |  |
| CCc1sc(NC(=O)c2cc(Br)ccc2O)nc1C(C)(C)C [compound 195, 5-Bromo-N-{4-[(1,1-dimethyl)ethyl]-5-ethylthiazol-2-yl}-2-hydroxybenzamide] | 90.5% | 98.1% |  |  |  | Inhibitory ratio of AP-1 activation(%) (AP-1 activation [2]; Drug concentration 1 μM): 91.2%; Inhibitory ratio of AP-1 activation(%) (AP-1 activation [2]; Drug concentration 1 μg/mL): 95.5% |
| CC(C)(C)C(=O)c1sc(NC(=O)c2cc(Cl)ccc2O)nc1C(C)(C)C [compound 199, 5-Chloro-N-{4-[(1,1-dimethyl)ethyl]-5-[(2,2-dimethyl)propionyl]thiazol-2-yl}-2-hydroxybenzamide] | 96.4% | 98.4% |  |  |  | Inhibitory ratio of AP-1 activation(%) (AP-1 activation [2]; Drug concentration 1 μg/mL): 70.6% |
| O=C(Nc1nc(-c2ccccc2)c(-c2ccccc2)s1)c1cc(Br)ccc1O [compound 211] |  |  |  | 67.0% | 29.7% |  |
| CCOC(=O)c1sc(NC(=O)c2cc(-c3ccccc3)ccc2O)nc1-c1ccccc1 [compound 225] |  |  | 34.6% |  | 33.5% |  |
